Assay results taken from patent US8138211B2, “Isothiazolyloxyphenylamidines and their use as fungicides” (Bayer Cropscience AG, priority 2009, dated 2012).

Tested on: Pyricularia oryzae
Assay: not given
Type: in vivo
Conditions: active compound concentration of 250 ppm; rice, protective; evaluation 7 days after inoculation

In the case of CCN(C)C=Nc1cc(C)c(Oc2snc(C(C)(C)C)c2C#N)cc1C [compound 6], the efficacy is reported as no less than 80%.

Tested on: not listed separately
Assay: logP by HPLC on reversed-phase columns (C18), EEC Directive 79/831 Annex V.A8
Type: physicochemical
Conditions: pH 2.7
Procedure: The logP values were measured in accordance with EEC Directive 79/831 Annex V.A8 by HPLC (High Performance Liquid Chromatography) on reversed-phase columns (C18), using the method below: ^[a] The determination was carried out in the acidic range at pH 2.3 using the mobile phases 0.1% aqueous phosphoric acid and acetonitrile linear gradient from 10% acetonitrile to 95% acetonitrile. ^[b] The LC-MS determination in the acidic range was carried out at pH 2.7 using the mobile phases 0.1% aqueous formic acid and acetonitrile (comprising 0.1% formic acid) linear gradient from 10% acetonitrile to 95% acetonitrile ^[c] The LC-MS determination in the neutral range was carried out at pH 7.8 using the mobile phases 0.001 molar ammonium bicarbonate solution and acetonitrile linear gradient from 10% acetonitrile to 95% acetonitrile. Calibration was carried out using unbranched alkan-2-ones (having 3 to 16 carbon atoms) with known logP values (determination of the logP values by the retention times using linear interpolation between two successive alkanones).

In order of rising chromatographic logP:
1. CCN(C)/C=N/c1cc(C)c(Oc2cc(-c3ccccc3)ns2)cc1C [No. 43, N′-{2,5-dimethyl-4-[(3-phenyl-1,2-thiazol-5-yl)oxy]phenyl}-N-ethyl-N-methylimidoformamide]  2.11
2. CCCN(C)/C=N/c1cc(C)c(Oc2snc(C(C)(C)C)c2C#N)cc1C [No. 4, N′-{4-[(3-tert-butyl-4-cyano-1,2-thiazol-5-yl)oxy]-2,5-dimethylphenyl}-N-methyl-N-propylimidoformamide]  2.19
3. CCN(C)/C=N/c1cc(C)c(Oc2snc(-c3ccccc3)c2Cl)cc1C [No. 48, N′-{4-[(4-chloro-3-phenyl-1,2-thiazol-5-yl)oxy]-2,5-dimethylphenyl}-N-ethyl-N-methylimidoformamide]  2.25
4. CCN(C)/C=N/c1cc(Cl)c(Oc2snc(-c3ccccc3)c2Br)cc1C [No. 54, N′-{4-[(4-bromo-3-phenyl-1,2-thiazol-5-yl)oxy]-5-chloro-2-methylphenyl}-N-ethyl-N-methylimidoformamide]  2.26
5. CCN(C)/C=N/c1cc(C)c(Oc2snc(Cc3ccc(Cl)cc3)c2C#N)cc1C [No. 27, N′-(4-{[3-(4-chlorobenzyl)-4-cyano-1,2-thiazol-5-yl]oxy}-2,5-dimethylphenyl)-N-ethyl-N-methylimidoformamide]  2.39
6. Cc1cc(Oc2cc(-c3ccccc3)ns2)c(C)cc1N [2,5-dimethyl-4-[(3-phenylisothiazol-5-yl)oxy]aniline]  3.6
7. Clc1cc(-c2ccccc2)ns1 [5-chloro-3-phenylisothiazole]  3.82
8. N#Cc1c(Cc2ccc(Cl)cc2)nsc1Cl [5-chloro-3-(4-chlorobenzyl)isothiazole-4-carbonitrile]  3.87
9. Cc1cc(Oc2snc(Cc3ccc(Cl)cc3)c2C#N)c(C)cc1N [5-(4-amino-2,5-dimethylphenoxy)-3-(4-chlorobenzyl)isothiazole-4-carbonitrile]  4.03
10. Cc1cc(Oc2snc(-c3ccccc3)c2Cl)c(C)cc1N [4-[(4-chloro-3-phenylisothiazol-5-yl)oxy]-2,5-dimethylaniline]  4.22
11. Cc1cc(Oc2snc(-c3ccccc3)c2Br)c(Cl)cc1N [4-[(4-bromo-3-phenylisothiazol-5-yl)oxy]-5-chloro-2-methylaniline]  4.41
12. Clc1snc(-c2ccccc2)c1Cl [4,5-dichloro-3-phenylisothiazole]  4.44

Same assay, conditions: reversed-phase HPLC column (C18); LC-MS, acidic range pH 2.7, 0.1% aqueous formic acid and acetonitrile; read-out: logP(HCO2H)

In order of falling chromatographic logP:
1. Clc1snc(-c2ccccc2)c1Br [4-bromo-5-chloro-3-phenylisothiazole]  4.41
2. N#Cc1c(Cc2ccc(Cl)cc2)nsc1N [5-amino-3-(4-chlorobenzyl)isothiazole-4-carbonitrile]  2.4
3. CC(C)(C)c1nsc(N)c1C#N [5-amino-3-tert-butylisothiazole-4-carbonitrile]  2.4
4. Nc1snc(-c2ccccc2)c1Br [4-bromo-3-phenylisothiazol-5-amine]  2.26
5. Nc1snc(-c2ccccc2)c1Cl [4-chloro-3-phenylisothiazol-5-amine]  2.21

Tested on: Cochliobolus miyabeanus
Assay: Cochliobolus test (rice)/protective
Conditions: active compound concentration of 250 ppm, protective, evaluation 4 days after inoculation
Procedure: • Solvent: 28.5 parts by weight of acetone • Emulsifier: 1.5 parts by weight of alkylaryl polyglycol ether
One day after the treatment, the plants are inoculated with an aqueous spore suspension of Cochliobolus miyabeanus. The plants are then placed in a greenhouse at 100% relative atmospheric humidity and 25° C.
Evaluation is carried out 4 days after the inoculation.

CCN(C)C=Nc1cc(C)c(Oc2snc(C(C)(C)C)c2C#N)cc1C [compound 6] showed an efficacy of no less than 80%.
